Results as given in the supplement of paper PMC6045584.
± gives the standard deviation of the averaged measurements.

Assays:
SAPACITABINE [1] = compound: T1, CCCCCCCCCCCCCCCC(=O)Nc1ccn([C@@H]2O[C@H](CO)[C@@H](O)[C@@H]2C#N)c(=O)n1 [SAPACITABINE]; assay: surviving fraction relative to DMSO-only wells; higher = less growth inhibition; settings: exposure time: 5 days
In short: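 Each tumour cell line was screened three times, and only lines with replicate Pearson r >0.7 and median Z' >0.3 were kept. Cells in log phase were seeded at 250–500 per well in 384-well plates, left 24 hours, then exposed continuously for five days to inhibitors at 0.5, 1, 5, 10, 50, 100, 500 and 1000 nM. Viability was read as CellTiter-Glo luminescence, with surviving fraction normalised to the median of DMSO-only wells.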

CANERTINIB = compound: C=CC(=O)Nc1cc2c(Nc3ccc(F)c(Cl)c3)ncnc2cc1OCCCN1CCOCC1 [CANERTINIB]; assay: area under dose-response curve of surviving fraction (unscaled, Aref=0) (surviving fraction x log10(nM)); higher = more resistant; settings: exposure time: 5 days; dose range 0.5-1000 nM
In short: (§1)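 Surviving fractions were fitted by 3-parameter logistic regression in the drc R package to give dose-response survival curves. They came from tumour cell lines treated for five days with eight inhibitor concentrations from 0.5 to 1000 nM and read by CellTiter-Glo luminescence against DMSO-only wells. The area under the curve is the unscaled activity area. It was calculated over log10 dose with Aref = 0.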

SNX-5422 = compound: CC1(C)CC(=O)c2c(C(F)(F)F)nn(-c3ccc(C(N)=O)c(N[C@H]4CC[C@H](OC(=O)CN)CC4)c3)c2C1 [SNX-5422]; assay: as above; settings: exposure time: 5 days; dose range 0.5-1000 nM
In short: as §1

SAPACITABINE [2] = compound: T1, SAPACITABINE; assay: as above; settings: exposure time: 5 days; dose range 0.5-1000 nM
In short: as §1

BI-2536 = compound: CC[C@@H]1C(=O)N(C)c2cnc(Nc3ccc(C(=O)NC4CCN(C)CC4)cc3OC)nc2N1C1CCCC1 [BI-2536]; assay: as above; settings: exposure time: 5 days; dose range 0.5-1000 nM
In short: as §1

AFATINIB = compound: CN(C)C/C=C/C(=O)Nc1cc2c(Nc3ccc(F)c(Cl)c3)ncnc2cc1O[C@H]1CCOC1 [AFATINIB]; assay: as above; settings: exposure time: 5 days; dose range 0.5-1000 nM
In short: as §1

MDV3100 = compound: CNC(=O)c1ccc(N2C(=S)N(c3ccc(C#N)c(C(F)(F)F)c3)C(=O)C2(C)C)cc1F [MDV3100]; assay: as above; settings: exposure time: 5 days; dose range 0.5-1000 nM
In short: as §1

[3] = compound: Cn1cc(C2=Nc3cc(NC(=O)C(N)C4CCCCC4)cc4c3C2=CNNC4=O)cn1; assay: as above; settings: exposure time: 5 days; dose range 0.5-1000 nM
In short: as §1

TIOGUANINE = compound: Nc1nc2[nH]cnc2c(=S)[nH]1 [TIOGUANINE]; assay: as above; settings: exposure time: 5 days; dose range 0.5-1000 nM
In short: as §1

Row | Test System | surviving fraction (SAPACITABINE [1]; 0.5 nM) | surviving fraction (SAPACITABINE [1]; 1 nM) | surviving fraction (SAPACITABINE [1]; 5 nM) | surviving fraction (SAPACITABINE [1]; 10 nM) | surviving fraction (SAPACITABINE [1]; 50 nM) | surviving fraction (SAPACITABINE [1]; 100 nM) | surviving fraction (SAPACITABINE [1]; 500 nM) | surviving fraction (SAPACITABINE [1]; 1000 nM) | area under dose-response curve (CANERTINIB) | area under dose-response curve (SNX-5422) | area under dose-response curve (SAPACITABINE [2]) | area under dose-response curve (BI-2536) | area under dose-response curve (AFATINIB) | area under dose-response curve (MDV3100) | area under dose-response curve [3] | area under dose-response curve (TIOGUANINE)
1 | HSSYII SYNOVIAL | 0.797 ± 0.015 | 0.636 ± 0.061 | 0.726 ± 0.032 | 0.132 ± 0.022 | 0.537 ± 0.033 | 0.315 ± 0.005 | 0.123 ± 0.0085 | 0.0603 ± 0.0046 | 2.66 | 1.9 | 1.36 | 0.796 | 2.96 | 2.74 | 1.67 | 3.09
2 | JIMT1 BREAST | 0.862 ± 0.018 | 0.8617 ± 0.0045 | 0.899 ± 0.032 | 0.87 ± 0.025 | 0.966 ± 0.046 | 0.859 ± 0.04 | 0.632 ± 0.015 | 0.558 ± 0.032 | 2.93 | 2.23 | 2.84 | 0.911 | 2.62 | 3.33 | 2.96 | 3.25
3 | LM7 BONE | 0.703 ± 0.044 | 0.708 ± 0.036 | 0.761 ± 0.015 | 0.641 ± 0.077 | 0.599 ± 0.037 | 0.4143 ± 0.0032 | 0.191 ± 0.036 | 0.162 ± 0.021 | 2.42 | 1.88 | 1.77 | 0.659 | 2.89 | 3.51 | 2.46 | 3.33
4 | HOS BONE | 0.899 ± 0.01 | 0.912 ± 0.0076 | 0.927 ± 0.018 | 0.911 ± 0.024 | 0.975 ± 0.041 | 0.831 ± 0.026 | 0.209 ± 0.035 | 0.224 ± 0.007 | 3.14 | 1.72 | 2.63 | 0.874 | 3.28 | 3.36 | 2.35 | 3.16
5 | MDAMB436 BREAST | 0.861 ± 0.07 | 0.795 ± 0.08 | 0.75 ± 0.074 | 0.719 ± 0.075 | 0.561 ± 0.029 | 0.497 ± 0.053 | 0.445 ± 0.049 | 0.352 ± 0.013 | 2.86 | 2.16 | 2.05 | 1.46 | 2.99 | 3.1 | 2.31 | 2.8
6 | HT1080 SOFT TISSUE | 1 ± 0.028 | 1.01 ± 0.029 | 1.02 ± 0.053 | 0.935 ± 0.053 | 0.591 ± 0.025 | 0.434 ± 0.012 | 0.314 ± 0.012 | 0.271 ± 0.0047 | 3.29 | 2.11 | 2.33 | 1.26 | 3.25 | 3.42 | 2.6 | 3.16
7 | CAL120 BREAST | 0.917 ± 0.028 | 0.901 ± 0.047 | 0.893 ± 0.081 | 0.876 ± 0.053 | 0.749 ± 0.06 | 0.631 ± 0.038 | 0.428 ± 0.01 | 0.3798 ± 0.0035 | 3.01 | 1.77 | 2.46 | 0.616 | 2.87 | 3.07 | 2.8 | 3.05
8 | HOSMNG BONE | 0.96 ± 0.087 | 1.02 ± 0.032 | 1.06 ± 0.021 | 1.04 ± 0.031 | 1.12 ± 0.078 | 1.16 ± 0.016 | 0.948 ± 0.021 | 0.703 ± 0.046 | 3.4 | 2.33 | 3.25 | 1.32 | 3.23 | 3.56 | 3.09 | 3.34
9 | MDAMB453 BREAST | 0.988 ± 0.053 | 0.968 ± 0.053 | 1 ± 0.058 | 1.03 ± 0.07 | 1.01 ± 0.022 | 1.01 ± 0.067 | 0.641 ± 0.033 | 0.407 ± 0.03 | 3.19 | 2.06 | 3.1 | 0.857 | 2.7 | 3.16 | 2.33 | 3.28
10 | BT549 BREAST | 0.831 ± 0.065 | 0.869 ± 0.068 | 0.809 ± 0.027 | 0.695 ± 0.026 | 0.508 ± 0.022 | 0.367 ± 0.029 | 0.16 ± 0.044 | 0.125 ± 0.034 | 2.74 | 1.94 | 1.85 | 0.891 | 3.09 | 3.26 | 2.19 | 3.29
11 | MDAMB157 BREAST | 0.911 ± 0.034 | 0.859 ± 0.058 | 0.806 ± 0.077 | 0.755 ± 0.025 | 0.632 ± 0.069 | 0.619 ± 0.02 | 0.446 ± 0.02 | 0.306 ± 0.036 | 2.78 | 2.28 | 2.24 | 0.791 | 3.17 | 3.08 | 2.88 | 3.03
12 | NCIH441 LUNG | 1.042 ± 0.009 | 0.975 ± 0.077 | 1.02 ± 0.036 | 0.913 ± 0.034 | 0.53 ± 0.023 | 0.363 ± 0.051 | 0.34 ± 0.025 | 0.312 ± 0.023 | 3.05 | 2.63 | 2.28 | 1.79 | 3.02 | 3.25 | 2.85 | 3.28
13 | HCC38 BREAST | 0.958 ± 0.075 | 0.931 ± 0.092 | 1.02 ± 0.21 | 0.801 ± 0.02 | 0.594 ± 0.17 | 0.525 ± 0.04 | 0.414 ± 0.086 | 0.274 ± 0.088 | 3.55 | 1.97 | 2.32 | 1.35 | 3.94 | 4.04 | 1.69 | 3.75
14 | KPD BONE | 0.887 ± 0.013 | 0.886 ± 0.043 | 0.977 ± 0.045 | 0.946 ± 0.1 | 0.926 ± 0.024 | 0.815 ± 0.013 | 0.52 ± 0.028 | 0.344 ± 0.017 | 3.06 | 1.89 | 2.81 | 1.5 | 3.02 | 3.28 | 2.3 | 3.35
15 | G292 BONE | 0.947 ± 0.056 | 0.955 ± 0.026 | 0.927 ± 0.059 | 0.899 ± 0.061 | 0.618 ± 0.028 | 0.482 ± 0.012 | 0.326 ± 0.011 | 0.299 ± 0.0036 | 3.18 | 2.01 | 2.32 | 0.883 | 3.06 | 3.25 | 2.19 | 3.25
16 | COLO320DM LARGE INTESTINE | 1.01 ± 0.054 | 0.88 ± 0.044 | 1.08 ± 0.043 | 0.386 ± 0.015 | 0.887 ± 0.057 | 0.689 ± 0.0072 | 0.597 ± 0.024 | 0.185 ± 0.0083 | 3.25 | 2.19 | 2.44 | 1.68 | 3.24 | 3.31 | 3.21 | 3.52
17 | PCI30 HEADNECK | 0.899 ± 0.053 | 0.916 ± 0.046 | 0.946 ± 0.039 | 0.984 ± 0.051 | 0.965 ± 0.027 | 0.801 ± 0.023 | 0.555 ± 0.028 | 1.05 ± 0.13 | 2.01 | 2.2 | 2.94 | 1.08 | 1.61 | 3.18 | 2.65 | 3.19
